In brackets after ≈: the same amount, converted by molar mass.
How the values were obtained:
acid ceramidase = target: T1, acid ceramidase (Homo sapiens, UniProt Q13510); assay: Acid ceramidase inhibition, biochemical fluorescent assay with cell lysates overexpressing acid ceramidase, substrate Rbm14-12; settings: substrate Rbm14-12 6.3 μM
T1 construct: Cell lysates overexpressing acid ceramidase were used as the enzyme source; expressed in transfected cells
T1 sequence (Q13510 22-395): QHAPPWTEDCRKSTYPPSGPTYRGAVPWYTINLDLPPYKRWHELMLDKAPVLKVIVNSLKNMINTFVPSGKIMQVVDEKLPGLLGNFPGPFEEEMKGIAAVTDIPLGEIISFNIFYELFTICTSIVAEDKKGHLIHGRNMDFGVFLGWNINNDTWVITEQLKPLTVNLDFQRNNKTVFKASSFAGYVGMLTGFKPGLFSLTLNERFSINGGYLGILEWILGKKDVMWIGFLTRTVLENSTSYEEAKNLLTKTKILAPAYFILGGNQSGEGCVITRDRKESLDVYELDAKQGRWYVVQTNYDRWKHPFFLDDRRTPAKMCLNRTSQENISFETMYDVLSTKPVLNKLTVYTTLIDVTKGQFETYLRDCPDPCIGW
How it was run: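 Lysate of cells overexpressing acid ceramidase (10 μg protein) preincubated with compound dose series 1 hr at RT in 25 mM NaAC, 100 mM NaCl, pH 4.5, then reacted 1 hr with 6.3 μM Rbm14-12. Stopped with NaIO4/glycine buffer pH 10.6, fluorescence ex360/em446; IC50 by four-parameter fit.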

[1] = Compound solubility in water
[2] = pH 4.5, 1 hr preincubation at RT

Row | SMILES | IC50 (acid ceramidase; [2]) | solubility [1] | IC50 (acid ceramidase; pH 4.5)
1 | COc1nc2cc(-c3cccnc3)ccc2n1C(=O)NCCc1ccccc1 [Example 30a, 2-Methoxy-N-phenethyl-5-(pyridin-3-yl)-1H-benzo[d]imidazole-1-carboxamide] | < 200 nM | 1.6 µg/mL (≈ 4.3 µM) | 
2 | CC(C)C#CCNC(=O)n1cnc2c(N3CCN(CCC(F)(F)F)CC3)cccc21 [Example 310, N-(4-Methylpent-2-yn-1-yl)-4-(4-(3,3,3-trifluoropropyl)piperazin-1-yl)-1H-benzo[d]imidazole-1-carboxamide] |  | 4 µg/mL (≈ 9.49 µM) | < 200 nM
3 | CC(C)CCNC(=O)n1cnc2c(N3CC4CCC(C3)N4C)cccc21 [Example 161, N-iso-Pentyl-4-(8-methyl-3,8-diazabicyclo[3.2.1]-octan-3-yl)-1H-benzo[d]imidazole-1-carboxamide] |  | 35 µg/mL (≈ 98.5 µM) | 200 to 1000 nM
4 | CC(C)C#CCNC(=O)n1cnc2c(N3CC4(CN(C)C4)C3)cccc21 [Example 358, 4-(6-Methyl-2,6-diazaspiro[3.3]heptan-2-yl)-N-(4-methylpent-2-yn-1-yl)-1H-benzo[d]imidazole-1-carboxamide] | 200 to 1000 nM | 33 µg/mL (≈ 93.9 µM) | 
5 | CC1(N)CCN(c2cccc3c2ncn3C(=O)NCCCc2ccccc2)CC1 [Example 263, 4-(4-Amino-4-methylpiperidin-1-yl)-N-(3-phenylpropyl)-1H-benzo[d]imidazole-1-carboxamide] |  | 25 µg/mL (≈ 63.9 µM) | < 200 nM
6 | CN1CCN(c2cccc3c2ncn3C(=O)NCC#Cc2ccccc2)CC1 [Example 282, 4(4-Methylpiperazin-1-yl)-N-(3-phenylprop-2-yn-1-yl)-1H-benzo[d]imidazole-1-carboxamide] |  | 21 µg/mL (≈ 56.2 µM) | < 200 nM
7 | O=C(NCCc1ccccc1)n1c(Oc2ccccc2)nc2ccccc21 [Example 37, N-Phenethyl-2-phenoxy-1H-benzo[d]imidazole-1-carboxamide] | < 200 nM | 0.2 µg/mL (≈ 0.56 µM) | 
8 | CN1CCN(c2cccc3c2ncn3C(=O)NCC#Cc2ccc(F)cc2)CC1 [Example 336, N-(3-(4-Fluorophenyl)prop-2-yn-1-yl)-4-(4-methylpiperazin-1-yl)-1H-benzo[d]imidazole-1-carboxamide] | < 200 nM | 15 µg/mL (≈ 38.3 µM) | 
9 | O=C(NCCc1ccccc1)n1cnc2ncccc21 [Example 19a, N-Phenethyl-1H-imidazo[4,5-b]pyridine-1-carboxamide] | < 200 nM | 26.1 µg/mL (≈ 98 µM) | 
10 | CN1CC(N2CCN(c3cccc4c3ncn4C(=O)NCCc3ccccc3)CC2)C1 [Example 325, 4-(4-(1-Methylazetidin-3-yl)piperazin-1-yl)-N-phenethyl-1H-benzo[d]imidazole-1-carboxamide] |  | 32 µg/mL (≈ 76.5 µM) | < 200 nM
11 | CN1CC(N2CCN(c3cccc4c3ncn4C(=O)NCCCc3ccccc3)CC2)C1 [Example 251, 4-(4-(1-Methylazetidin-3-yl)piperazin-1-yl)-N-(3-phenylpropyl)-1H-benzo[d]imidazole-1-carboxamide] |  | 35 µg/mL (≈ 80.9 µM) | < 200 nM
12 | CN1C2CCC1CN(c1cccc3c1ncn3C(=O)NCCC1CCC(F)(F)C1)C2 (centres unmarked) [Example 289, N-(2-(3,3-Difluorocyclopentyl)ethyl)-4-(8-methyl-3,8-diazabicyclo[3.2.1]octan-3-yl)-1H-benzo[d]imidazole-1-carboxamide] |  | 39 µg/mL (≈ 93.4 µM) | 200 to 1000 nM
13 | O=C(NCCc1ccccc1)n1cnc2cc(N3CCOCC3)ccc21 [Example 14a, 5-Morpholino-N-phenethyl-1H-benzo[d]imidazole-1-carboxamide] | < 200 nM | 16.1 µg/mL (≈ 45.9 µM) | 
14 | COc1nc2c(N3CCN(C)CC3)cccc2n1C(=O)NCCC(C)C [Example 145, N-iso-Pentyl-2-methoxy-4-(4-methylpiperazin-1-yl)-1H-benzo[d]imidazole-1-carboxamide] | > 1000 nM | 46 µg/mL (≈ 128 µM) | 
15 | O=C(NCCc1ccccc1)n1cnc2cc(Cl)c(-c3ccccn3)cc21 [Example 7b, 5-chloro-N-phenethyl-6-(pyridin-2-yl)-1H-benzo[d]imidazole-1-carboxamide] | < 200 nM | 0.1 µg/mL (≈ 0.265 µM) | 
16 | CC(C)C#CCNC(=O)n1cnc2c(N3CCC4CN(C)CC4CC3)cccc21 (centres unmarked) [Example 312, 4-(2-Methyloctahydropyrrolo[3,4-d]azepin-6(1H)-yl)-N-(4-methylpent-2-yn-1-yl)-1H-benzo[d]imidazole-1-carboxamide] |  | 24 µg/mL (≈ 61 µM) | < 200 nM
17 | CC(C)CCNC(=O)n1cnc2c(N3CCN(C4CC4)CC3)cccc21 [Example 147, 4-(4-Cyclopropylpiperazin-1-yl)-N-iso-pentyl-1H-benzo[d]imidazole-1-carboxamide] | 200 to 1000 nM | 14 µg/mL (≈ 39.4 µM) | 
18 | C[C@@H]1CN(c2cccc3c2ncn3C(=O)NCCCC(F)(F)F)C[C@H](C)O1 [Example 226, 4-((2R,6S)-2,6-dimethylmorpholino)-N-(4,4,4-trifluorobutyl)-1H-benzo[d]imidazole-1-carboxamide] |  | 5 µg/mL (≈ 13 µM) | 200 to 1000 nM
19 | CCCCNC(=O)n1cnc2c(F)cccc21 [Example 68, N-Butyl-4-fluoro-1H-benzo[d]imidazole-1-carboxamide] | < 200 nM | 20.6 µg/mL (≈ 87.6 µM) | 
20 | Cn1c(=O)n(C(=O)NCCc2ccccc2)c2cccnc21 [Example 87, 3-Methyl-2-oxo-N-phenethyl-2,3-dihydro-1H-imidazo[4,5-b]pyridine-1-carboxamide] | > 1000 nM | 14.7 µg/mL (≈ 49.6 µM) | 
21 | CN1CCN(c2cccc3c2ncn3C(=O)NCC2Oc3ccccc3O2)CC1 [Example 345, N-(Benzo[d][1,3]dioxol-2-ylmethyl)-4-(4-methylpiperazin-1-yl)-1H-benzo[d]imidazole-1-carboxamide] | < 200 nM | 40 µg/mL (≈ 102 µM) | 

More lines, now with the values ahead:

Row | IC50 (acid ceramidase; [2]) | solubility [1] | IC50 (acid ceramidase; pH 4.5) | SMILES
22 |  | 15 µg/mL (≈ 36.4 µM) | < 200 nM | COc1nc2cc(N3CCOCC3)ccc2n1C(=O)NCCCc1ccc(F)cc1 [Example 221b]
23 |  | 2 µg/mL (≈ 5.34 µM) | 200 to 1000 nM | COc1nc2cc(N3CCOCC3)c(F)cc2n1C(=O)NCC#CC(C)C [Example 321a, 6-Fluoro-2-methoxy-N-(4-methylpent-2-yn-1-yl)-5-morpholino-1H-benzo[d]imidazole-1-carboxamide]
24 |  | 9 µg/mL (≈ 22.8 µM) | < 200 nM | COc1nc2cnc(N3CCOCC3)cc2n1C(=O)NCCCc1ccccc1 [Example 213a, 2-Methoxy-6-morpholino-N-(3-phenylpropyl)-1H-imidazo[4,5-c]pyridine-1-carboxamide]
25 |  | 26 µg/mL (≈ 63 µM) | 200 to 1000 nM | COc1nc2ccc(N3CCOCC3)cc2n1C(=O)NCCC1CC1C(F)(F)F (centres unmarked) [Example 230a, 2-Methoxy-6-morpholino-N-(2-(2-(trifluoromethyl)cyclopropyl)ethyl)-1H-benzo[d]imidazole-1-carboxamide]
26 | < 200 nM | 6 µg/mL (≈ 20 µM) |  | CC(C)CNC(=O)n1cnc2cc(-c3cncs3)ccc21 [Example 126a, N-iso-Butyl-5-(thiazol-5-yl)-1H-benzo[d]imidazole-1-carboxamide]
27 | < 200 nM | 7.1 µg/mL (≈ 19 µM) |  | COc1nc2ccc(-c3cncnc3)cc2n1C(=O)NCCc1ccccc1 [Example 31a, 2-Methoxy-N-phenethyl-6-(pyrimidin-5-yl)-1H-benzo[d]imidazole-1-carboxamide]
28 | 200 to 1000 nM | 31.7 µg/mL (≈ 96.5 µM) |  | CCCCNC(=O)n1cnc2c(C3CCN(C)CC3)cc(C)cc21 [Example 107a]

— patent publication US20220380319A1 (Bial - R&D Investments, S.A., priority 2019, published 2022)
